Measurements taken from PMC10584170, “Machine learning-based phenotypic imaging to characterise the targetable biology of Plasmodium falciparum male gametocytes for the development of transmission-blocking antimalarials” (PLOS Pathogens, 2023).

What was measured:
[1] = tested on: P. falciparum female gametocytes; experiment: P. falciparum Dual Gamete Formation Assay (PfDGFA), female readout (Pfs25-positive female gametes); assay type: cell-based, Plasmodium falciparum NF54; conditions: for IC50: this study, read-out: Pf DGFA IC50 FEM
In short: (§1)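 First, day-14 P. falciparum NF54 gametocytes receive compound for 24 h at 37°C in 1% O2/3% CO2. Next, ookinete medium with Cy3 anti-Pfs25 triggers gametogenesis at 28°C and male exflagellation is imaged. Finally, after 24 h in the dark, Cy3-labelled females are imaged.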

HepG2 cells = conditions: cited from earlier work; for FGAA TOX50 HepG2: HepG2 value reported with the FGAA screen, ref Miguel-Blanco et al 2017; for ODA TOX50 HepG2: HepG2 value reported with the ODA screen, ref Delves et al 2019
[2] = tested on: P. falciparum male gametocytes; experiment: P. falciparum Dual Gamete Formation Assay (PfDGFA), male readout (exflagellation); assay type: cell-based, Plasmodium falciparum NF54; conditions: for IC50: this study, read-out: Pf DGFA IC50 MALE
In short: as §1

[3] = tested on: P. falciparum male gametocytes; experiment: PhIDDLI timecourse assay, compound added at timepoints after triggering male gametogenesis; assay type: cell-based, Plasmodium falciparum NF54; conditions: for cells with late phenotype / cells forming exflagellation centres: compound added at 10 min post-induction; for cells forming exflagellation centres: DMSO control 17.2%; for arrest of gametogenesis: compound added concurrent with triggering gametogenesis
[4] = tested on: P. falciparum protein kinase G (PfPKG); conditions: cited from earlier work
[5] = tested on: P. berghei ookinete development; experiment: P. berghei Ookinete Development Assay (PbODA); assay type: cell-based, Plasmodium berghei; conditions: Mean TOX HepG2 over Pb ODA value; GREEN = >10-fold; RED = <10-fold

IC50 [1] [nM] | IC50 [2] [nM] | Compound | Cytotox ratio Pf Female [1] | FGAA TOX50 HepG2 (HepG2 cells) [µM] | Cytotox ratio Pf Male [2] | cells with late phenotype [3] [%] | cells forming exflagellation centres [3] [%] | arrest of gametogenesis [3] | activity against recombinant PfPKG [4] | ODA TOX50 HepG2 (HepG2 cells) [µM] | Cytotox ratio Pb Ookinete [5]
1020 | 1630 | CC(C)(CNC(=O)[C@H]1CCCCN1)c1nc(-c2ccc(Cl)c(O)c2)c(-c2ccncc2)[nH]1.Cl [TC04] | 39.8 | 28.96 | 24.9 | 86.3 | 0.4 | near total arrest | – | – | –
430 | 850 | Cl.NCC1(c2nc(-c3ccc(Cl)c(O)c3)c(-c3ccncc3)[nH]2)CCCCC1 [TC41] | 53.2 | 11.9 | 26.9 | 84.9 | 1.1 | near total arrest | – | 46.774 | 14844.9

Compound | IC50 [1] [nM] | IC50 [2] [nM] | Cytotox ratio Pf Female [1] | FGAA TOX50 HepG2 (HepG2 cells) [µM] | Cytotox ratio Pf Male [2] | cells with late phenotype [3] [%] | cells forming exflagellation centres [3] [%] | arrest of gametogenesis [3] | activity against recombinant PfPKG [4] | ODA TOX50 HepG2 (HepG2 cells) [µM] | Cytotox ratio Pb Ookinete [5]
CC(C)(CN)c1nc(-c2ccc(Br)c(O)c2)c(-c2ccncc2)[nH]1.Cl [TC13] | 570 | 1480 | 112.9 | 45.82 | 43.5 | 83.3 | 2.7 | near total arrest | had activity | 47.315 | 38479.3
